Assay results published in PubChem BioAssay AID330 (DTP/NCI, 2004).
“And” between values parts separate entries of the source, which are not always exact repeats. Equal entries are not always repeated. Inconclusive results and toxic doses are left out.

Tested on: P388 leukemia ip, CD2F1 mice, survival T/C
Experiment: NCI In Vivo Anticancer Drug Screen. Data for tumor model P388 Leukemia (intraperitoneal) in CD2F1 (CDF1) mice
Conditions: endpoint: median survival time, higher = longer survival
Method in brief: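 Mice carrying the transplanted tumor received test compound or vehicle. Survival was recorded in each group, and the value is the treated-group measurement divided by that of the vehicle-treated control group.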

[1] = dose: 50.0 mg/kg/injection, schedule: Q01DX009 (ip), vehicle: saline with Tween-80
[2] = dose: 200.0 mg/kg/injection, schedule: Q04DX003 (ip), vehicle: saline with Tween-80
[3] = dose: 100.0 mg/kg/injection, schedule: Q01DX001 (ip), vehicle: Klucel (hydroxypropylcellulose) (HPC)
[4] = dose: 100.0 mg/kg/injection, schedule: Q01DX001 (ip), vehicle: saline with Tween-80
[5] = dose: 200.0 mg/kg/injection, schedule: Q01DX001 (ip), vehicle: saline with Tween-80
[6] = dose: 400.0 mg/kg/injection, schedule: Q01DX001 (ip), vehicle: saline with Tween-80
[7] = dose: 100.0 mg/kg/injection, schedule: Q04DX002 (ip), vehicle: saline with Tween-80
[8] = dose: 200.0 mg/kg/injection, schedule: Q04DX002 (ip), vehicle: saline with Tween-80
[9] = dose: 50.0 mg/kg/injection, schedule: Q01DX005 (ip), vehicle: saline with Tween-80
[10] = dose: 100.0 mg/kg/injection, schedule: Q01DX005 (ip), vehicle: saline with Tween-80
[11] = dose: 50.0 mg/kg/injection, schedule: Q01DX005 (ip), vehicle: Klucel (hydroxypropylcellulose) (HPC)
[12] = dose: 100.0 mg/kg/injection, schedule: Q01DX005 (ip), vehicle: Klucel (hydroxypropylcellulose) (HPC)

SMILES: Cc1ccc(-c2nc3scc(C)n3n2)cc1
- T/C (dose: 60.0 mg/kg/injection, schedule: Q01DX005 (ip), vehicle: Klucel (hydroxypropylcellulose) (HPC)): 100 % of control
- T/C (dose: 120.0 mg/kg/injection, schedule: Q01DX005 (ip), vehicle: Klucel (hydroxypropylcellulose) (HPC)): 96 % of control
- T/C (dose: 240.0 mg/kg/injection, schedule: Q01DX005 (ip), vehicle: Klucel (hydroxypropylcellulose) (HPC)): 103 % of control

SMILES: CC[n+]1c(-c2ccccc2)c2cc(NCCCN)ccc2c2ccc(N)cc21
- T/C (dose: 1.25 mg/kg/injection, schedule: Q01DX009 (ip), vehicle: water): 97 % of control
- T/C (dose: 2.5 mg/kg/injection, schedule: Q01DX009 (ip), vehicle: water): 116 % of control
- T/C (dose: 5.0 mg/kg/injection, schedule: Q01DX009 (ip), vehicle: water): 103 % of control
- T/C (dose: 10.0 mg/kg/injection, schedule: Q01DX009 (ip), vehicle: water): 115 % of control
- T/C (dose: 20.0 mg/kg/injection, schedule: Q01DX009 (ip), vehicle: water): 116 % of control

SMILES: C=CCNc1ccc(C)cc1
- T/C (dose: 33.0 mg/kg/injection, schedule: Q01DX009 (ip), vehicle: saline with Tween-80): 116 % of control
- T/C [1]: 116 % of control
- T/C (dose: 100.0 mg/kg/injection, schedule: Q04DX003 (ip), vehicle: saline with Tween-80): 100 % of control
- T/C [2]: 122 % of control
- T/C (dose: 400.0 mg/kg/injection, schedule: Q04DX003 (ip), vehicle: saline with Tween-80): 90 % of control

SMILES: CC(C)(C)[Si]1(C(C)(C)C)N([Si](C)(C)C)N1[Si](C)(C)C (stereo not given)
- T/C (dose: 60.0 mg/kg/injection, schedule: Q01DX005 (ip), vehicle: saline): 106 % of control
- T/C (dose: 120.0 mg/kg/injection, schedule: Q01DX005 (ip), vehicle: saline): 100 % of control
- T/C (dose: 240.0 mg/kg/injection, schedule: Q01DX005 (ip), vehicle: saline): 105 % of control

SMILES: O=C1c2ccccc2-c2c1c1ccccc1n2S(=O)(=O)c1ccccc1
- T/C [3]: 103 % of control
- T/C (dose: 200.0 mg/kg/injection, schedule: Q01DX001 (ip), vehicle: Klucel (hydroxypropylcellulose) (HPC)): 103 % of control
- T/C (dose: 400.0 mg/kg/injection, schedule: Q01DX001 (ip), vehicle: Klucel (hydroxypropylcellulose) (HPC)): 101 % of control

SMILES: COC(=O)c1cc(Cl)ccc1OCC(O)CNc1ccc(Cl)cc1C(=O)c1ccccc1 (stereo not given)
- T/C (dose: 60.0 mg/kg/injection, schedule: Q01DX005 (ip), vehicle: saline with Tween-80): 92 % of control
- T/C (dose: 120.0 mg/kg/injection, schedule: Q01DX005 (ip), vehicle: saline with Tween-80): 100 % of control
- T/C (dose: 240.0 mg/kg/injection, schedule: Q01DX005 (ip), vehicle: saline with Tween-80): 90 % of control

SMILES: S=c1[nH]nc2nc3c4ccccc4c4ncccc4c3nn12
- T/C [4]: 92 % of control
- T/C [5]: 91 % of control
- T/C [6]: 100 % of control

SMILES: CC1CN1P(=S)(N1CCCC1)N1CC1C (stereo not given)
- T/C (dose: 64.0 mg/kg/injection, schedule: Q04DX003 (ip), vehicle: saline with Tween-80): 116 % of control
- T/C (dose: 66.0 mg/kg/injection, schedule: Q01DX009 (ip), vehicle: saline with Tween-80): 150 % of control
- T/C (dose: 100.0 mg/kg/injection, schedule: Q01DX009 (ip), vehicle: saline with Tween-80): 150 % of control
- T/C (dose: 150.0 mg/kg/injection, schedule: Q01DX009 (ip), vehicle: saline with Tween-80): 86 % of control
- T/C [2]: 159 % of control
- T/C (dose: 256.0 mg/kg/injection, schedule: Q04DX003 (ip), vehicle: saline with Tween-80): 100 % of control

SMILES: O=c1c2ccccc2ncn1S(=O)(=O)c1ccc(N(CCCl)CCCl)cc1
- T/C [7]: 110 % of control
- T/C [8]: 118 % of control

SMILES: C=C1CC2(C)CCC(OC(=O)C3(C)OC3C)C(C)(OC(C)=O)C2CC1=C(C)C (stereo not given)
- T/C (dose: 150.0 mg/kg/injection, schedule: Q01DX001 (ip), vehicle: Klucel (hydroxypropylcellulose) (HPC)): 99 % of control
- T/C (dose: 300.0 mg/kg/injection, schedule: Q01DX001 (ip), vehicle: Klucel (hydroxypropylcellulose) (HPC)): 98 % of control

SMILES: CN(CCO)c1ncnc2c1ncn2C
- T/C (dose: 50.0 mg/kg/injection, schedule: Q01DX005 (ip), vehicle: saline): 99 % of control
- T/C (dose: 100.0 mg/kg/injection, schedule: Q01DX005 (ip), vehicle: saline): 108 % of control
- T/C (dose: 200.0 mg/kg/injection, schedule: Q01DX005 (ip), vehicle: saline): 100 % of control

SMILES: Brc1ccc(C2=NOP(c3ccccc3)(c3ccccc3)(c3ccccc3)C2)cc1
- T/C (dose: 50.0 mg/kg/injection, schedule: Q01DX009 (ip), vehicle: Klucel (hydroxypropylcellulose) (HPC)): 99 % of control
- T/C (dose: 100.0 mg/kg/injection, schedule: Q01DX009 (ip), vehicle: Klucel (hydroxypropylcellulose) (HPC)): 96 % of control

SMILES: COc1ccc2oc(N(C)c3ccccc3)c(C3OC4OC(C)(C)OC4C3OC)c(=O)c2c1 (stereo not given)
- T/C (dose: 25.0 mg/kg/injection, schedule: Q01DX001 (ip), vehicle: Klucel (hydroxypropylcellulose) (HPC)): 97 % of control
- T/C (dose: 50.0 mg/kg/injection, schedule: Q01DX001 (ip), vehicle: Klucel (hydroxypropylcellulose) (HPC)): 105 % of control
- T/C [3]: 109 % of control

SMILES: COc1nc2c(c(O)cn2C2OCC(OC(C)=O)C(OC(C)=O)C2OC(C)=O)c(=O)n1C (stereo not given)
- T/C [4]: 106 % of control
- T/C [5]: 92 % of control
- T/C [6]: 99 % of control

SMILES: CCC(=N\N=C(N)N)/C(C)=N\N=C(N)N
- T/C [9]: 99 % of control
- T/C [10]: 96 % of control

SMILES: CC(=O)CC(C)=O.CC(=O)CC(C)=O.CCCn1ccnc1.O=N[O-].[Co]
- T/C (dose: 50.0 mg/kg/injection, schedule: Q01DX001 (ip), vehicle: saline with Tween-80): 95 % of control
- T/C [4]: 101 % of control and 93 % of control
- T/C [5]: 99 % of control and 120 % of control
- T/C [6]: 108 % of control

SMILES: O=C(Nc1ccc(NC(=O)c2ccncc2)cc1)c1ccncc1
- T/C [9]: 97 % of control
- T/C [10]: 93 % of control
- T/C (dose: 200.0 mg/kg/injection, schedule: Q01DX005 (ip), vehicle: saline with Tween-80): 97 % of control

SMILES: NC1=NS(=O)(=O)c2ccccc2N1c1ccccc1
- T/C [7]: 97 % of control
- T/C [8]: 103 % of control
- T/C (dose: 400.0 mg/kg/injection, schedule: Q04DX002 (ip), vehicle: saline with Tween-80): 92 % of control

SMILES: CC1C(=O)OC(C)(C)C1(C)C (stereo not given)
- T/C [1]: 101 % of control

SMILES: CCCCCC1=CC2(F)C(=O)NC(=O)NC12 (stereo not given)
- T/C (dose: 12.5 mg/kg/injection, schedule: Q01DX005 (ip), vehicle: Klucel (hydroxypropylcellulose) (HPC)): 97 % of control
- T/C (dose: 25.0 mg/kg/injection, schedule: Q01DX005 (ip), vehicle: Klucel (hydroxypropylcellulose) (HPC)): 98 % of control
- T/C [11]: 108 % of control
- T/C [12]: 95 % of control

SMILES: CC(C)(Oc1ccc(Cl)cc1)C(=O)OCCCC(=O)NC1CC(C)(C)N(O)C(C)(C)C1
- T/C (dose: 200.0 mg/kg/injection, schedule: Q01DX001 (ip), vehicle: saline): 105 % of control
- T/C (dose: 400.0 mg/kg/injection, schedule: Q01DX001 (ip), vehicle: saline): 115 % of control

SMILES: CCCS(=O)[O-].CCCS(=O)[O-].[Zn+2]
- T/C (dose: 0.05 mg/kg/injection, schedule: Q01DX009 (ip), vehicle: saline): 103 % of control
- T/C (dose: 0.1 mg/kg/injection, schedule: Q01DX009 (ip), vehicle: saline): 107 % of control
- T/C (dose: 0.2 mg/kg/injection, schedule: Q01DX009 (ip), vehicle: saline): 108 % of control
- T/C (dose: 0.4 mg/kg/injection, schedule: Q01DX009 (ip), vehicle: saline): 99 % of control
- T/C (dose: 0.8 mg/kg/injection, schedule: Q01DX009 (ip), vehicle: saline): 107 % of control
- T/C (dose: 1.6 mg/kg/injection, schedule: Q01DX009 (ip), vehicle: saline): 108 % of control
- T/C (dose: 3.2 mg/kg/injection, schedule: Q01DX009 (ip), vehicle: saline): 101 % of control
- T/C (dose: 6.4 mg/kg/injection, schedule: Q01DX009 (ip), vehicle: saline): 100 % of control
- T/C (dose: 12.8 mg/kg/injection, schedule: Q01DX009 (ip), vehicle: saline): 100 % of control

SMILES: CCCCCCCCCCCCCCN1CCSCC1
- T/C (dose: 50.0 mg/kg/injection, schedule: Q01DX009 (ip), vehicle: saline): 101 % of control
- T/C (dose: 100.0 mg/kg/injection, schedule: Q01DX009 (ip), vehicle: saline): 99 % of control

SMILES: OCCSCc1ccc(F)cc1
- T/C [11]: 101 % of control
- T/C [12]: 97 % of control
- T/C (dose: 200.0 mg/kg/injection, schedule: Q01DX005 (ip), vehicle: Klucel (hydroxypropylcellulose) (HPC)): 104 % of control

SMILES: O=S(=O)(O)CC[S][Sn]([S]CCS(=O)(=O)O)([c]1ccccc1)[c]1ccccc1
- T/C (dose: 3.75 mg/kg/injection, schedule: Q01DX005 (ip), vehicle: Klucel (hydroxypropylcellulose) (HPC)): 153 % of control
